The values that follow come from patent publication US4332794A, “6"-Deoxydibekacin, 4",6"-dideoxydibekacin and 1-N-aminoacyl derivatives thereof, and the production of these new compounds” (Zaidan Hojin Biseibutsu Kagaku Kenkyu Kai, priority 1979, dated 1982).

For one assay, the system named is Salmonella typhi F63. The experiment in a line: MIC, serial dilution on nutrient agar. The following applies: Salmonella enterica, 18 h. It counts as cell-based.
A further assay relates to Proteus rettgeri GN466. Put plainly: MIC, serial dilution on nutrient agar. It counts as cell-based. Particulars: Providencia rettgeri.
In assay [1] the test system is Escherichia coli K-12 C 600R/35. Put plainly: MIC, serial dilution on nutrient agar. It counts as cell-based. The following applies: K12C600R/35, 37° C., 18 hours. The method, then:
(§1) The minimum inhibitory concentrations (mcg/ml) of 6"-deoxydibekacin (abbreviated as 6"-DDKB), 4",6"-dideoxydibekacin (abbreviated as 4",6"-DDKB), 1-N-(L-4-amino-2-hydroxybutyryl)-6"-deoxydibekacin (abbreviated as AHB-6"-DDKB) and 1-N-(L-4-amino-2-hydroxybutyryl)-4",6"-dideoxydibekacin (abbreviated as AHB-4",6"-DDKB) of this invention against various microorganisms were determined according to serial dilution method on a nutrient agar medium at 37° C., the estimation being made after 18 hours incubation. For comparison purpose, the minimum inhibitory concentrations of dibekacin (abbreviated as DKB) were also determined in the same manner as stated above.

The subject of assay [2] is Escherichia coli K-12 J5B 11-2. Put plainly: MIC, serial dilution on nutrient agar. It is filed as cell-based. Particulars: K12J5B112, 37° C., 18 hours. As for the experimental part:
as §1

Assay [3] relates to Escherichia coli K-12 ML 1629. Put plainly: MIC, serial dilution on nutrient agar. It is filed as cell-based. Particulars: K12ML1629, 37° C., 18 hours. As for the experimental part: as §1
For assay [4], the system named is Escherichia coli K-12 ML 1630. The experiment in a line: MIC, serial dilution on nutrient agar. It counts as cell-based. Particulars: K12ML1630, 37° C., 18 hours. The method, then:
as §1

Assay [5] relates to Klebsiella pneumoniae PCI 602. The experiment in a line: MIC, serial dilution on nutrient agar. It is filed as cell-based. The following applies: PCI602, 37° C., 18 hours. As for the experimental part:
as §1

The next assay concerns Proteus vulgaris OX19. The experiment in a line: MIC, serial dilution on nutrient agar. The following applies: 37° C., 18 hours. It counts as cell-based. The method, then:
as §1

The next assay has as its system Providencia 2991. The experiment in a line: MIC, serial dilution on nutrient agar. It counts as cell-based. Particulars: 37° C., 18 hours. The method, then: as §1
Assay [6] has as its system Pseudomonas aeruginosa 21-75. Put plainly: MIC, serial dilution on nutrient agar. It counts as cell-based. The following applies: 2175, 37° C., 18 hours. The method, then: as §1
Assay [7] concerns Pseudomonas aeruginosa GN315. Put plainly: MIC, serial dilution on nutrient agar. Particulars: 37° C., 18 hours. It is filed as cell-based. The method, then: as §1
In assay [8] the test system is Pseudomonas maltophilia GN907. Put plainly: MIC, serial dilution on nutrient agar. It counts as cell-based. Particulars: Stenotrophomonas maltophilia, 37° C., 18 hours. As for the experimental part:
as §1

A further assay relates to Serratia 4. Put plainly: MIC, serial dilution on nutrient agar. It is filed as cell-based. Particulars: 37° C., 18 hours. As for the experimental part: as §1
For the next assay, the system named is Serratia SOU. The experiment in a line: MIC, serial dilution on nutrient agar. It is filed as cell-based. The following applies: 37° C., 18 hours. As for the experimental part:
as §1

The next assay relates to Serratia marcescens. Put plainly: MIC, serial dilution on nutrient agar. It counts as cell-based. The following applies: 37° C., 18 hours. As for the experimental part:
as §1

Assay [9] deals with Shigella flexneri 4b JS11811. The experiment in a line: MIC, serial dilution on nutrient agar. It counts as cell-based. The following applies: 4BJS11811, 37° C., 18 hours. As for the experimental part:
as §1

The next assay has as its system Shigella sonnei JS11746. The experiment in a line: MIC, serial dilution on nutrient agar. The following applies: 37° C., 18 hours. It counts as cell-based. The method, then:
as §1

Assay [10] has as its system Staphylococcus aureus 209P. Put plainly: MIC, serial dilution on nutrient agar. Particulars: 37° C., 18 hours. It is filed as cell-based. The method, then: as §1
Assay [11] concerns kanamycin-sensitive and resistant bacteria. The experiment in a line: antibacterial activity compared to dibekacin. It counts as cell-based. As for the experimental part: as §1
Assay [12] concerns kanamycin-sensitive bacteria and various kanamycin-resistant bacteria. The following applies: prior art; cited from earlier work.
The mark [13] stands for this setting: GN466, nutrient agar, 37° C., 18 hours, read-out: MIC.

Converted amounts (≈) assume the structure as drawn. Where two headings read alike, the source gives them in different places.

As a reminder, the MIC is the lowest concentration found to suppress growth. `C[C@H]1O[C@H](O[C@@H]2[C@@H](O)[C@H](O[C@H]3O[C@H](CN)CC[C@H]3N)[C@@H](N)C[C@H]2NC(=O)[C@@H](O)CCN)[C@H](O)[C@@H](N)[C@@H]1O` [AHB-6"-DDKB, 1-N-(L-4-amino-2-hydroxybutyryl)-6"-deoxydibekacin]: the MIC was determined as 0.39 µg/mL (≈ 0.727 µM) in the assay on Salmonella typhi F63; 12.5 µg/mL (≈ 23.3 µM) in the assay with Proteus rettgeri GN466 (setting [13]); 1.56 µg/mL (≈ 2.91 µM) in assay [1]; 1.56 µg/mL (≈ 2.91 µM) in assay [2]; 1.56 µg/mL (≈ 2.91 µM) in [3]; 3.13 µg/mL (≈ 5.83 µM) in [4]. Besides, the MIC in [5] was 1.56 µg/mL (≈ 2.91 µM); in the assay on Proteus vulgaris OX19, 0.78 µg/mL (≈ 1.45 µM); with Providencia 2991, 100 µg/mL (≈ 186 µM); in [6], 100 µg/mL (≈ 186 µM); in assay [7], 50 µg/mL (≈ 93.2 µM); in assay [8], more than 100 µg/mL. Also, the MIC amounted to 6.25 µg/mL (≈ 11.6 µM) in the assay with Serratia 4; 100 µg/mL (≈ 186 µM) against Serratia SOU; 50 µg/mL (≈ 93.2 µM) against Serratia marcescens; 6.25 µg/mL (≈ 11.6 µM) in assay [9]; 6.25 µg/mL (≈ 11.6 µM) in the assay on Shigella sonnei JS11746; 1.56 µg/mL (≈ 2.91 µM) in [10].
For `C[C@@H]1C[C@H](N)[C@@H](O)[C@@H](O[C@@H]2[C@@H](O)[C@H](O[C@H]3O[C@H](CN)CC[C@H]3N)[C@@H](N)C[C@H]2N)O1` [4",6"-DDKB, 4",6"-dideoxydibekacin], the MIC amounted to 0.78 µg/mL (≈ 1.86 µM) in the assay with Salmonella typhi F63; 1.56 µg/mL (≈ 3.72 µM) in the assay with Proteus rettgeri GN466 (GN466, 18 h); 50 µg/mL (≈ 119 µM) in assay [1]; 3.13 µg/mL (≈ 7.46 µM) in assay [2]; 3.13 µg/mL (≈ 7.46 µM) in [3]; 3.13 µg/mL (≈ 7.46 µM) in assay [4]. Moreover, the MIC in assay [5] was 0.78 µg/mL (≈ 1.86 µM); against Proteus vulgaris OX19 it was 0.78 µg/mL (≈ 1.86 µM); against Providencia 2991, more than 100 µg/mL; in assay [6], more than 100 µg/mL; in assay [7], more than 100 µg/mL; in [8], more than 100 µg/mL. Besides, the MIC was 100 µg/mL (≈ 238 µM) in the assay with Serratia 4; more than 100 µg/mL in the assay with Serratia SOU; 100 µg/mL (≈ 238 µM) in the assay with Serratia marcescens; 3.13 µg/mL (≈ 7.46 µM) in assay [9]; 3.13 µg/mL (≈ 7.46 µM) in the assay on Shigella sonnei JS11746; 0.39 µg/mL (≈ 0.93 µM) in assay [10]. Also, the “antibacterial activity compared to dibekacin (DKB)” value in assay [11] was “same or more active”.
Take `NC[C@@H]1CC[C@@H](N)[C@@H](O[C@H]2[C@H](O)[C@@H](O[C@H]3O[C@H](CO)[C@@H](O)[C@H](N)[C@H]3O)[C@H](N)C[C@@H]2N)O1` [DKB, 3',4'-dideoxykanamycin B, reference compound]: the MIC in the assay on Salmonella typhi F63 came out at 0.78 µg/mL (≈ 1.73 µM); in the assay with Proteus rettgeri GN466 (setting [13]), 1.56 µg/mL (≈ 3.45 µM); in assay [1] it was 1.56 µg/mL (≈ 3.45 µM); in assay [2] it was 3.13 µg/mL (≈ 6.93 µM); in [3], 3.13 µg/mL (≈ 6.93 µM); in [4] it was 3.13 µg/mL (≈ 6.93 µM). For the same compound, the MIC in assay [5] was 0.78 µg/mL (≈ 1.73 µM); against Proteus vulgaris OX19, 0.78 µg/mL (≈ 1.73 µM); in the assay with Providencia 2991, more than 100 µg/mL; in assay [6], more than 100 µg/mL; in [7], more than 100 µg/mL; in assay [8], more than 100 µg/mL. The MIC is 100 µg/mL (≈ 221 µM) with Serratia 4; more than 100 µg/mL against Serratia SOU; 100 µg/mL (≈ 221 µM) with Serratia marcescens; 3.13 µg/mL (≈ 6.93 µM) in assay [9]; 6.25 µg/mL (≈ 13.8 µM) against Shigella sonnei JS11746; 0.78 µg/mL (≈ 1.73 µM) in assay [10]. The antibacterial activity result in assay [12] was “active against the kanamycin-sensitive bacteria and also against various kanamycin-resistant bacteria”.
For `C[C@H]1O[C@H](O[C@@H]2[C@@H](O)[C@H](O[C@H]3O[C@H](CN)CC[C@H]3N)[C@@H](N)C[C@H]2N)[C@H](O)[C@@H](N)[C@@H]1O` [6"-DDKB, 6"-deoxydibekacin], the MIC against Salmonella typhi F63 was 0.39 µg/mL (≈ 0.895 µM); in the assay with Proteus rettgeri GN466 (GN466, 18 h), 3.13 µg/mL (≈ 7.19 µM); in assay [1] it was 3.13 µg/mL (≈ 7.19 µM); in assay [2], 1.56 µg/mL (≈ 3.58 µM); in assay [3] it was 1.56 µg/mL (≈ 3.58 µM); in assay [4], 3.13 µg/mL (≈ 7.19 µM). Moreover, the MIC in assay [5] was 1.56 µg/mL (≈ 3.58 µM); with Proteus vulgaris OX19, 0.39 µg/mL (≈ 0.895 µM); with Providencia 2991 it was more than 100 µg/mL; in assay [6], more than 100 µg/mL; in [7], 100 µg/mL (≈ 230 µM); in [8], more than 100 µg/mL. The MIC against Serratia 4 is 100 µg/mL (≈ 230 µM); in the assay with Serratia SOU it was more than 100 µg/mL; in the assay on Serratia marcescens, 100 µg/mL (≈ 230 µM); in assay [9] it was 3.13 µg/mL (≈ 7.19 µM); against Shigella sonnei JS11746 it was 3.13 µg/mL (≈ 7.19 µM); in assay [10], 0.78 µg/mL (≈ 1.79 µM). For the same compound, the “antibacterial activity compared to dibekacin (DKB)” value in assay [11] is “same or more active”.
On to `C[C@@H]1C[C@H](N)[C@@H](O)[C@@H](O[C@@H]2[C@@H](O)[C@H](O[C@H]3O[C@H](CN)CC[C@H]3N)[C@@H](N)C[C@H]2NC(=O)[C@@H](O)CCN)O1` [AHB-4",6"-DDKB, 1-N-(L-4-amino-2-hydroxybutyryl)-4",6"-dideoxydibekacin], for which the MIC with Salmonella typhi F63 was determined as 0.39 µg/mL (≈ 0.749 µM); with Proteus rettgeri GN466 (GN466, 18 h), 3.13 µg/mL (≈ 6.01 µM); in [1] it was 0.78 µg/mL (≈ 1.5 µM); in assay [2], 1.56 µg/mL (≈ 3 µM); in assay [3], 1.56 µg/mL (≈ 3 µM); in [4], 1.56 µg/mL (≈ 3 µM). The MIC in [5] was 0.78 µg/mL (≈ 1.5 µM); against Proteus vulgaris OX19 it was 0.39 µg/mL (≈ 0.749 µM); against Providencia 2991 it was 100 µg/mL (≈ 192 µM); in assay [6], more than 100 µg/mL; in assay [7], 100 µg/mL (≈ 192 µM); in [8], more than 100 µg/mL. Also, the MIC with Serratia 4 is 6.25 µg/mL (≈ 12 µM); in the assay with Serratia SOU, more than 100 µg/mL; in the assay with Serratia marcescens, 100 µg/mL (≈ 192 µM); in assay [9] it was 6.25 µg/mL (≈ 12 µM); against Shigella sonnei JS11746, 3.13 µg/mL (≈ 6.01 µM); in assay [10], 0.78 µg/mL (≈ 1.5 µM).
